Measurements published in patent US20100203647A1, “Chemical Reporters of Protein Acylation” (THE ROCKEFELLER UNIVERSITY, priority 2008, published 2010).
Entries after “also recorded” stand apart in the source; their conditions may differ.

Assays:
Jurkat cells [1] = assay: Metabolic labeling with inhibitors; conditions: for class of acylated proteins targeted by the reporter: from CHX and NH2OH sensitivity in Jurkat cell lysates
Lck = assay: Pulse-chase tandem imaging of palmitate turnover on Lck in Jurkat T cells; format: cell-based, human; conditions: for effect of chemical inhibitor on palmitate turnover on Lck: added during the chase, 20 μM MAFP, 100 μM 2BP; for decay of reporter signal on Lck with excess myristate as the chase additive: over 6 hours
p300 = target: T1, p300 (Homo sapiens, UniProt Q09472); assay: MALDI-TOF analysis of p300-catalyzed acylation of histone H3 peptide in vitro; format: biochemical; conditions: 20 μM analog, MS analysis
T1 construct: made in house; host or cells: SF9 insect cells, baculovirus
T1 sequence (Q09472 whole entry): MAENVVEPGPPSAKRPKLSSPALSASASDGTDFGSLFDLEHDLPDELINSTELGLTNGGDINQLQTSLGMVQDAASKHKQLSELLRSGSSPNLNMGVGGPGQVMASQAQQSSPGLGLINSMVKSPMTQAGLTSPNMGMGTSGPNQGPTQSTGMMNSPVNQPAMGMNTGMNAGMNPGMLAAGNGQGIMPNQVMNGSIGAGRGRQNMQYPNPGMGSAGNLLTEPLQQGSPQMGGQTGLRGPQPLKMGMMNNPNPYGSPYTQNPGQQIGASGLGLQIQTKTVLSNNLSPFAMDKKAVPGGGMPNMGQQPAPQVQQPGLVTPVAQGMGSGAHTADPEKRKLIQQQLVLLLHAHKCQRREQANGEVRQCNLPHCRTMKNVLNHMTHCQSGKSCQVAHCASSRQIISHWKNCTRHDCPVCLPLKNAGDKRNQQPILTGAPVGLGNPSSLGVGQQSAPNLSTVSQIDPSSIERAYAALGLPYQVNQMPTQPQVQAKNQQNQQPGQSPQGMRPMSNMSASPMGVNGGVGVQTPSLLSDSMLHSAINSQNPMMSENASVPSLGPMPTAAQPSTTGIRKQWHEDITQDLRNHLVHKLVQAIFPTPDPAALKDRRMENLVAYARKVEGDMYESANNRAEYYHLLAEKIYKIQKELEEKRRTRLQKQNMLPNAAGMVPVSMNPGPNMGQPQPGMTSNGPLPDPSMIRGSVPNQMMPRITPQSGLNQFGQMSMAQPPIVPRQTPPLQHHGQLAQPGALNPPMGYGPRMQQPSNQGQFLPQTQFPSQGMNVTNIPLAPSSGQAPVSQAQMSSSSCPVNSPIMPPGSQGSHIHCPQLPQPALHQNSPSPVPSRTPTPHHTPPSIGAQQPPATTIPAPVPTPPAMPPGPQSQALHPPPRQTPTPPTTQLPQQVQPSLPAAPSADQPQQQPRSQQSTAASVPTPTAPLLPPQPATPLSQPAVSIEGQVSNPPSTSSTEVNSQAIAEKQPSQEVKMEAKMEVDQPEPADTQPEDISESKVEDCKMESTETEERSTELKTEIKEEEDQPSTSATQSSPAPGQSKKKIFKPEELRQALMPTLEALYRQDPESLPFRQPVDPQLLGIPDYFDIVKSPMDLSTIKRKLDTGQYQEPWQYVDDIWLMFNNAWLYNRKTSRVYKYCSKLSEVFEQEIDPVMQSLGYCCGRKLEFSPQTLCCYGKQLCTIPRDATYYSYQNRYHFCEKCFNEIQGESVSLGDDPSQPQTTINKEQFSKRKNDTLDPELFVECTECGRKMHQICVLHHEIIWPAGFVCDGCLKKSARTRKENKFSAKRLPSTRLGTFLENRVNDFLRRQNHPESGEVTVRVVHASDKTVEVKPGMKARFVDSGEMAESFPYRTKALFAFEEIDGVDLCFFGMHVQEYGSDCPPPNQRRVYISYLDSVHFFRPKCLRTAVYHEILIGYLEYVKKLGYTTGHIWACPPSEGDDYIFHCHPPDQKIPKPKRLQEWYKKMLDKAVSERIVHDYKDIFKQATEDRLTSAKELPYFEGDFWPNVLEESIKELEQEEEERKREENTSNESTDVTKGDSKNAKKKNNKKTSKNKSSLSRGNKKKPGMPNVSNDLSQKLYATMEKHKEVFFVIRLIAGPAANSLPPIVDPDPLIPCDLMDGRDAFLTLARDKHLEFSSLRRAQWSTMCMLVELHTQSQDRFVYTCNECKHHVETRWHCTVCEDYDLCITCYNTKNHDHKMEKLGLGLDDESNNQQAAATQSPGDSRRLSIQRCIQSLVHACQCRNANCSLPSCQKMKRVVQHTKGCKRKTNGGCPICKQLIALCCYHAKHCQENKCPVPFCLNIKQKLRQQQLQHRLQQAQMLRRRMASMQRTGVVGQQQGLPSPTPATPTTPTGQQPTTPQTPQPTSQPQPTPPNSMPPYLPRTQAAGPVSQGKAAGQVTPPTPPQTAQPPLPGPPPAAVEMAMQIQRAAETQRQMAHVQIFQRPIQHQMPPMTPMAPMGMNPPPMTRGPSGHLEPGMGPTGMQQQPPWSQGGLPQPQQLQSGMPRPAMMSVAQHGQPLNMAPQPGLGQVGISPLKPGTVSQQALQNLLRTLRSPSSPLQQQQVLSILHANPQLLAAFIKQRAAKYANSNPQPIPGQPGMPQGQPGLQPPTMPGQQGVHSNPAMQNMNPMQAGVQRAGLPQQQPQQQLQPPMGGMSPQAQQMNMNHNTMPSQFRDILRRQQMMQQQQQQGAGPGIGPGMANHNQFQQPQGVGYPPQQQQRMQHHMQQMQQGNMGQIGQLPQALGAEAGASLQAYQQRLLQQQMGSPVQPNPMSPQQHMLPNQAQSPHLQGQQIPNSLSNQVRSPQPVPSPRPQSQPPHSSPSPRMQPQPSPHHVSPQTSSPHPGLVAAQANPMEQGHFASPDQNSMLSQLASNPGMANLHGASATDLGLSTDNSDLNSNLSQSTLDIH
Experimental: Cells were lysed in lysis buffer (20 mM Tris, pH 7.5, 500 mM NaCl, 4 mM MgCl2, 0.4 mM EDTA, 20% glycerol, 2 mM DTT, and supplemented with protease inhibitors). Clarified cell lysates were diluted to 300 mM NaCl, and NP-40 was added to 0.1% final concentration. Flag M2 agarose resin (Sigma) was added to the lysate and incubated for 4 hours at 4° C. […] Protein concentration and purity were estimated by comparison to BSA standards on SDS gels stained with Gelcode Blue stain (Pierce).

Jurkat T cells [2] = assay: Metabolic labeling of Jurkat T cells with alkynyl-acetate analogs, CuAAC with az-Rho, in-gel fluorescence scanning; conditions: metabolically-labeled Jurkat T cells
Jurkat T cells [3] = assay: Proteomic analysis and modification site mapping of alkynyl-acetate analog-labeled proteins; format: cell-based, human; conditions: for qualitative comparison among alkynyl-acetate analogs as chemical reporter for protein acetylation: proteomics data and in vitro p300-acylation studies
M. smegmatis = assay: Labeling of acylated proteins in bacterial cells with alkynyl-chemical reporters; format: cell-based
[4] = system: acetylated proteins such as histones; assay: Metabolic labeling of acetylated proteins with very short chain alkynyl-chemical reporters, in-gel fluorescence; format: cell-based, human
Lck and LAT = assay: Hydroxylamine cleavage of S-acylated proteins (in-gel), immunoprecipitated Lck and LAT; format: cell-based, human; conditions: 1 M NH2OH pH 7.4; alk-16 on Lck and LAT, alk-12 on Lck
Experimental: (§1) Cell lysates were collected after centrifuging at 1,000 g for 5 minutes at 4° C. to remove cell debris. Protein concentration was determined by the BCA assay. Typical lysate protein concentration obtained: 6-8 mg/mL. LAT, Lck and Ras proteins were immunoprecipitated from 200 μg Jurkat cell lysate using the following antibodies at recommended concentrations: mouse anti-Lck (p56lck) monoclonal (Clone 3A5, Thermo Scientific, Waltham, Mass., USA), rat anti-v-H-ras (Ab-1) monoclonal (Y13-259 agarose conjugate, Calbiochem, San Diego, Calif., USA), and rabbit anti-LAT polyclonal (Millipore, Billerica, Mass., USA). A rabbit anti-Fyn polyclonal (Millipore, Billerica, Mass., USA) was used to immunoprecipitate wild type and mutant Fyn proteins from transfected and metabolically labeled HeLa cells. 25 μL of packed protein A-agarose beads (Roche, Mannheim, Germany) was used per sample.
The gel was finally washed with deionized water (2×5 minutes) and scanned for the post-hydroxylamine treatment fluorescence.

[5] = In vivo labeling of acylated proteins after intraperitoneal injection of alkynyl-chemical reporters; conditions: mice, one hour, splenocytes, liver
Experimental: Livers were harvested and incubated with Liberase 3 Blendzyme™ (Roche, Mannheim, Germany) at 37° C. for 30 minutes+ and homogenized prior to filtration with 0.4 μm cell strainers. Splenocytes were prepared by manual disruption of spleens using forceps. Liver and splenocyte preparations were subjected to red blood cell lysis using ACK lysis buffer.
Livers and kidney were harvested and incubated with Liberase 3 Blendzyme (Roche, Mannheim, Germany) at 37° C. for 30 minutes and homogenized prior to filtration with 0.4 μm cell strainers. Splenocytes were prepared by manual disruption of spleens using forceps. Liver, kidney and splenocyte preparations were subjected to red blood cell lysis using ACK lysis buffer.

Fyn [6] = target: T2, Fyn (Homo sapiens, UniProt P06241, C3S/C6S); assay: Alkynyl-fatty acid labeling of wild type, G2A and C3,6S Fyn overexpressed in HeLa cells, immunoprecipitation; format: cell-based; conditions: 20 μM reporter
T2 construct: expressed in transfected cells; host or cells: HeLa cells
T2 sequence (P06241 2-537 C3S/C6S): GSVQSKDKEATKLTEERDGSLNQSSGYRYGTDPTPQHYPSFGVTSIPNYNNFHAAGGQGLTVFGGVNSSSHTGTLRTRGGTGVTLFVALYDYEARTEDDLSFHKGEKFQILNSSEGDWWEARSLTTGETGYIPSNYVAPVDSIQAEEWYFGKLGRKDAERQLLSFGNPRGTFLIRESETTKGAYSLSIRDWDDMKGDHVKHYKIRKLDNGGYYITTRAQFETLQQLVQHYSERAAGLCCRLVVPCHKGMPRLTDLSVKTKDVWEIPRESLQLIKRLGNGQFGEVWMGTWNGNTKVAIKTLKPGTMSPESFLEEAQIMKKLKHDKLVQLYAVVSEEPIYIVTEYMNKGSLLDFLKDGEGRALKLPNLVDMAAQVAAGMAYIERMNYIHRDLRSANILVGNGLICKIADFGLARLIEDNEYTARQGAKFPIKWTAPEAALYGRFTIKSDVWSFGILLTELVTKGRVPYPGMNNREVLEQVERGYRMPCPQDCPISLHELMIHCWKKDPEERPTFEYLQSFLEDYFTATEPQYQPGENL
Experimental: (§2) HeLa cells were grown in 10 cm dishes to approximately 90% confluence in DMEM, supplemented with 10% FBS, and transfected with wildtype, G2A or C3,6S Fyn constructs using Lipofectamine 2000 (Invitrogen). The human Fyn constructs, wild type and mutant Fyn cDNAs cloned into eukaryotic expression vector pCMV5, were gifts from Dr. Marilyn Resh, Memorial Sloan-Kettering Cancer Center. The following day, cells were metabolically labeled with alkynyl-fatty acid analogs as described above.
as §1

Fyn [7] = target: T3, Fyn (Homo sapiens, UniProt P06241); assay: as above; format: cell-based; conditions: 20 μM reporter
T3 construct: expressed in transfected cells; host or cells: HeLa cells
T3 sequence (P06241 2-537): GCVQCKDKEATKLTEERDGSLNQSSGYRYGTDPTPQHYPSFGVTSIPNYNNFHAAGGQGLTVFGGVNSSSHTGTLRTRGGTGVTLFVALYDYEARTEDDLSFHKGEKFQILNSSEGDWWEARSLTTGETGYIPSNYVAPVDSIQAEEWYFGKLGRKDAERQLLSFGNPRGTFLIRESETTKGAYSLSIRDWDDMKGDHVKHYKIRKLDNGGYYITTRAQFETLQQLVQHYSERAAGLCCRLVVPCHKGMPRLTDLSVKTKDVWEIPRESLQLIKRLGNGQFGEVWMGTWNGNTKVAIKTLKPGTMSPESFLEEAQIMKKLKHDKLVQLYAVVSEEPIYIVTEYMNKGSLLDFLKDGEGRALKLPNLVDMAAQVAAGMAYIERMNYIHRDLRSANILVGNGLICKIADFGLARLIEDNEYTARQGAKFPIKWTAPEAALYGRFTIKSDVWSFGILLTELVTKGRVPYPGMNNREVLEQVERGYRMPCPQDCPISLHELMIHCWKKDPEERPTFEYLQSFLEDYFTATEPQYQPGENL
Experimental: as §2, §1

Fyn [8] = target: T4, Fyn (Homo sapiens, UniProt P06241, G2A); assay: as above; format: cell-based; conditions: 20 μM reporter
T4 construct: expressed in transfected cells; host or cells: HeLa cells
T4 sequence (P06241 2-537 G2A): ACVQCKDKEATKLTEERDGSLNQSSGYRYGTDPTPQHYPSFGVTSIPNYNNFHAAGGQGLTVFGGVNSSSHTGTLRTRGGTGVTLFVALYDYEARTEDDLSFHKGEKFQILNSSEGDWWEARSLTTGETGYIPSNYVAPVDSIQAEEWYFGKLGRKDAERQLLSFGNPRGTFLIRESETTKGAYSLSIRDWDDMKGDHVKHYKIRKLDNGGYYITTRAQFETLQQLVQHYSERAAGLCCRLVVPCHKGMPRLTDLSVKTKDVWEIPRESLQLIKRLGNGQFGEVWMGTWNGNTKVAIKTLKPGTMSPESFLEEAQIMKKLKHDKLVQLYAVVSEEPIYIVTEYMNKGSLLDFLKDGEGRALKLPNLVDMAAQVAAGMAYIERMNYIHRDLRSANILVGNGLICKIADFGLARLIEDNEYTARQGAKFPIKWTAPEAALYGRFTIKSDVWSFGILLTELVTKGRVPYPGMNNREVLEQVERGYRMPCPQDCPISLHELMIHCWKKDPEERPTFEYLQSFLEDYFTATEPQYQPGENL
Experimental: as §2, §1

[9] = Absorbance and fluorescence studies of clickable CyFur dyes; format: physicochemical; conditions: for εmax^b (M^−1cm^−1): in MeOH, at 470 nm for az-CyFur-1, az-CyFur-2 and at 580 nm for alk-CyFur, averaged over three independent experiments; for ΦF^c: quantum yield referenced against cresyl violet, alk-CyFur excited at 580 nm, az-CyFur-1 and az-CyFur-2 at 470 nm; for λmax^a (nm) (first column) / λmax^a (nm) (second column): spectra obtained in DMSO
Experimental: Absorbance and fluorescence studies. Absorption spectra and fluorescence data were collected on SpectraMax M2 multi-detection reader (Molecular Devices). The spectra in solution were obtained at 25° C. using a quartz cuvette with a path length of 1 cm. Fluorescence quantum yields (ΦF) of CyFur dyes were determined against cresyl violet (ΦF=0.54 in methanol).

Jurkat T cell lysates = assay: Streptavidin affinity enrichment and Na2S2O4 elution of azido-chemical reporter labeled Jurkat T cell lysates reacted with alk-diazo-biotin; format: cell-based, human; conditions: Coomassie staining of polypeptides eluted from streptavidin beads
[10] = system: metabolic incorporation of chemical reporters; assay: Effect of inhibitors/additives on metabolic incorporation of alkynyl-chemical reporters; format: cell-based
Jurkat cells [11] = assay: Competition of metabolic labeling with naturally occurring fatty acids; conditions: 2 hours, myristic acid 0, 10 or 100 μM, palmitic acid 0, 100 or 200 μM

CCCCCCCCCCCCCCC(Br)C(=O)O (stereo not drawn) [2-BP, 2-bromopalmitate, reference compound]
effect of inhibitor on alkynyl-fatty acid protein labeling (alk-12, alk-14, alk-16, 20 μM) (Jurkat cells [1]; Jurkat cells, CHX 10 μM, HMA 1 mM, 2-BP 50 μM, 30 minutes pre-incubation): reduced protein labeling with alk-12, alk-14 and alk-16
effect of chemical inhibitor on palmitate turnover on Lck (Lck): decreased Lck depalmitoylation rate

C#CCCSCCNC(=O)CCNC(=O)[C@H](O)C(C)(C)COP(=O)(O)OP(=O)(O)OC[C@H]1O[C@@H](n2cnc3c(N)ncnc32)[C@H](O)[C@@H]1OP(=O)(O)O [Analog 1, 3-butynyl-CoA]
utilization as acyl-CoA donor for p300-catalyzed acylation of histone H3 peptide (p300): does not appear to be utilized efficiently by p300
utilization as acyl-CoA donor for p300-catalyzed acylation of histone H3 peptide (p300; listed as 3-butynyl-CoA): not efficiently utilized by p300 in vitro

C#CCC(=O)[O-].[Na+] [Analog 4, sodium 3-butynoate]
labeling of known lysine-acetylated proteins (enriched core histones, immunoprecipitated histone H3) (Jurkat T cells [2]): specifically labeled

C#CCCC(=O)[O-].[Na+] [Analog 5, sodium 4-pentynoate]
sites of metabolic incorporation (MS/MS of enriched peptides) (Jurkat T cells [3]; Jurkat T cell lysates): metabolically incorporated into known sites of lysine acetylation on histone H2B, H3 and H4
labeled proteins also identified by anti-acetyl-Lys proteomic studies (Jurkat T cells [3]; Jurkat T cells): 86%
number of labeled proteins identified (Jurkat T cells [3]; Jurkat T cells, three independent experiments): approximately 194
qualitative comparison among alkynyl-acetate analogs as chemical reporter for protein acetylation (Jurkat T cells [3]): optimal chemical reporter for detecting protein acetylation
labeling of known lysine-acetylated proteins (enriched core histones, immunoprecipitated histone H3) (Jurkat T cells [2]): specifically labeled

C#CCCCC(=O)[O-].[Na+] [Analog 6, sodium 5-hexynoate]
qualitative comparison among alkynyl-acetate analogs as chemical reporter for protein acetylation (Jurkat T cells [3]): may also target cellular fatty-acylated proteins
labeling of known lysine-acetylated proteins (enriched core histones, immunoprecipitated histone H3) (Jurkat T cells [2]): specifically labeled

O=S(=O)(F)Cc1ccccc1 [PMSF, phenylmethylsulfonyl fluoride, reference compound]
effect of chemical inhibitor on palmitate turnover on Lck (Lck): no apparent effect on the initial rate of palmitate removal

C#CCC(=O)O [alk-2, buta-3-ynoic acid]
labeling of proteins in bacterial cells (M. smegmatis): labeled distinct proteins
labeling of acetylated proteins [4]: found to label acetylated proteins such as histones

C#CCCCC(=O)O [alk-4, hexa-5-ynoic acid]
labeling of proteins in bacterial cells (M. smegmatis): labeled distinct proteins
labeling of acetylated proteins [4]: found to label acetylated proteins such as histones
relative efficiency of labeling acetylated proteins among alk-2, alk-3, alk-4 [4]: most efficient labeling of acetylated proteins; also recorded: more efficient

C#CCCCCCCCCCCCC(=O)O [alk-12, Tetradec-13-ynoic acid]
labeling of proteins in bacterial cells (M. smegmatis): labeled distinct proteins
class of acylated proteins targeted by the reporter (Jurkat cells [1]): cotranslationally targets N-myristoylated proteins
effect of in-gel NH2OH treatment on fluorescent signal of reporter-labeled protein (Lck and LAT): did not alter
profile of acylated proteins after in vivo labeling [5]: discrete profile of acylated proteins from splenocytes similar to ex vivo labeling
labeling of dual S-palmitoylation-deficient C3,6S mutant Fyn (Fyn [6]): efficiently labeled
fatty-acylation of wild-type Fyn (Fyn [7]): readily detected
labeling of N-myristoylation G2A-mutant Fyn (Fyn [8]): significantly reduced

C#CCCCCCCCCCCCCCC(=O)O [alk-14, Hexadec-15-ynoic acid]
class of acylated proteins targeted by the reporter (Jurkat cells [1]): appears to represent a combination of alk-12 and alk-16 labeling

C#CCCCCCCCCCCCCCCCC(=O)O [alk-16, Octadec-17-ynoic acid]
labeling of proteins in bacterial cells (M. smegmatis): labeled distinct proteins
class of acylated proteins targeted by the reporter (Jurkat cells [1]): preferentially labels S-acylated proteins
decay of reporter signal on Lck with excess myristate as the chase additive (Lck): No significant decay
effect of in-gel NH2OH treatment on fluorescent signal of reporter-labeled protein (Lck and LAT): reduced the fluorescent signal
profile of acylated proteins after in vivo labeling [5]: did not reveal discrete profiles of acylated proteins in splenocytes or liver
fatty-acylation of wild-type Fyn (Fyn [7]): readily detected
labeling of N-myristoylation G2A-mutant Fyn (Fyn [8]): undetectable

C#CCCNc1ccc(/C=C/C2=C(C#N)C(=C(C#N)C#N)OC2(C)C)cc1 [alk-CyFur, (E)-2-(4-(4-(but-3-ynylamino)styryl)-3-cyano-5,5-dimethylfuran-2(5H)-ylidene)malononitrile]
absorption (abs) maxima [9]: 580 nm
emission (em) maxima [9]: 640 nm
εmax^b (M^−1cm^−1) [9]: 33,933 M^−1cm^−1
ΦF^c [9]: 0.0147
λmax^a (nm) (first column) [9]: 580 nm
λmax^a (nm) (second column) [9]: 640 nm

[N-]=[N+]=NCCCCCCCCCCCC(=O)O [az-12, 12-azido-dodecanoic acid]
proteins recovered from labeled cell lysates compared to control (-) (Jurkat T cell lysates): significantly greater amounts of proteins recovered
decay of reporter signal on Lck with excess myristate as the chase additive (Lck): No significant decay

[N-]=[N+]=NCCCCCCCCCCCCCCC(=O)O [az-15, 15-azido-pentadecanoic acid]
proteins recovered from labeled cell lysates compared to control (-) (Jurkat T cell lysates): significantly greater amounts of proteins recovered

CC1(C)OC(=C(C#N)C#N)C(C#N)=C1/C=C/c1ccc(NC(=O)OCCN=[N+]=[N-])cc1 [az-CyFur-1]
absorption (abs) maxima [9]: 470 nm
emission (em) maxima [9]: 580 nm
εmax^b (M^−1cm^−1) [9]: 20,533 M^−1cm^−1
ΦF^c [9]: 0.0067
λmax^a (nm) (first column) [9]: 470 nm
λmax^a (nm) (second column) [9]: 580 nm

CCCC(=O)O [butyric acid]
effect on labeling of acetylated proteins with alk-4 [10]: inhibited

CCCCCCCCCCCCCC(=O)O [myristic acid]
competition of alkynyl-fatty acid protein labeling (alk-12, alk-14, alk-16, 10 μM) (Jurkat cells [11]): alk-12 protein labeling is selectively blocked

CCCCCCCCCCCCCCCC(=O)O [palmitic acid]
competition of alkynyl-fatty acid protein labeling (alk-12, alk-14, alk-16, 10 μM) (Jurkat cells [11]): alk-14 and alk-16 protein labeling is most effectively reduced
